The source made the active and inactive calls.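 The calls were made as follows: active = mean IC50 below 20 µM in each of the two panels, so potent in both; inactive = the rest.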
Target: Neuropilin-1 (Homo sapiens) (UniProt O14786)
Assay: NRP-1 b1b2 CendR peptide binding inhibitors, dose response, biochemical, FP and AlphaScreen panel (AID 651650)
Conditions: NRP-1 b1b2 / RPARPAR peptide binding, FP or AlphaScreen
[1] = AlphaScreen, run 1, individual panel run IC50
[2] = FP, run 1, individual panel run IC50
[3] = FP, run 2, individual panel run IC50

Neuropilin-1 (Homo sapiens), sequence (O14786 whole entry, looked up): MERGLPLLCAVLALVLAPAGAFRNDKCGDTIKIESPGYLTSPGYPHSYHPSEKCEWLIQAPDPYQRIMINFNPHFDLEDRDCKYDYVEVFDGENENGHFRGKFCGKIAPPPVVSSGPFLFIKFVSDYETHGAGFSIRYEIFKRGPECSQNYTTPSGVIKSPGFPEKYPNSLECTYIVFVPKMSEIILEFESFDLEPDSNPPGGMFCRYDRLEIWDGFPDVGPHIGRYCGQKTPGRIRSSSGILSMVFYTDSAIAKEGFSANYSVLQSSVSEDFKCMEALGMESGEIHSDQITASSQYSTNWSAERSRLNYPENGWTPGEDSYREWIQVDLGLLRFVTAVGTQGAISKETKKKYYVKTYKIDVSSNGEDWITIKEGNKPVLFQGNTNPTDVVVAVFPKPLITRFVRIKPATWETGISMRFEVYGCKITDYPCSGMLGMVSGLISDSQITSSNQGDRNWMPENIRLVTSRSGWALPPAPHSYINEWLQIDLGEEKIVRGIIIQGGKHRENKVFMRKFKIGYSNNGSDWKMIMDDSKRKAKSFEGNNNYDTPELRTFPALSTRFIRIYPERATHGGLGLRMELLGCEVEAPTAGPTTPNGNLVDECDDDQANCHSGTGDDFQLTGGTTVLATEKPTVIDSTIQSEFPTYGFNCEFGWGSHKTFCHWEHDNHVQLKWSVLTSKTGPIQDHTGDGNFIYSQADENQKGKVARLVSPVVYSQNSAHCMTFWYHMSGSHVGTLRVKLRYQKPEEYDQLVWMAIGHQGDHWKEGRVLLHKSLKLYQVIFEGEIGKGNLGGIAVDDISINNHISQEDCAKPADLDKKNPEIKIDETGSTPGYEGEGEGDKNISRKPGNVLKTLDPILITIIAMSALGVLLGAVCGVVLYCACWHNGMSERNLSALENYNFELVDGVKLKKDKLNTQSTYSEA

IC50 (AlphaScreen, mean of runs)	IC50 [1] [µM]	IC50 (FP, mean of runs)	IC50 [2] [µM]	IC50 [3] [µM]	SMILES
> 100 µM (inactive)	> 100	> 95 µM (inactive)	> 95	> 95	CCOC(=O)Cc1csc(NC(=O)CSc2ncnc3c2cnn3-c2ccccc2Cl)n1
> 100 µM (inactive)	> 100	> 95 µM (inactive)	> 95	> 95	COc1ccccc1COc1ccc2c(C)c(CC(=O)O)c(=O)oc2c1C
8.6 µM	8.6	> 95 µM (inactive)	> 95	> 95	Cc1csc(NC(C)c2nc3cc(C(F)(F)F)ccc3n2CCCO)n1 (stereo not given)
> 100 µM (inactive)	> 100	> 95 µM (inactive)	> 95	> 95	CC1(C)S[C@@H]2[C@H](NC(=O)COc3ccccc3)C(=O)N2C1C(=O)OCc1ccccc1 (stereo not given in full)
> 100 µM (inactive)	> 100	> 95 µM (inactive)	> 95	> 95	COC(=O)C1=C(C)NC(C)=C(C(=O)OC)C1C(=O)OC(C)C(=O)c1ccccc1 (stereo not given)
> 100 µM (inactive)	> 100	> 95 µM (inactive)	> 95	> 95	CN(Cc1cnn(C)c1)C(=O)c1cc2ccccc2oc1=O
18.5 µM	18.5	> 95 µM (inactive)	> 95	> 95	Cn1cnc2cc(NC(=O)c3ccco3)ccc21
> 100 µM (inactive)	> 100	> 95 µM (inactive)	> 95	> 95	C=C[C@]12CC[C@H](OC(C)=O)CC1=CCC1C2CC[C@@]2(C)C1CCC21OCCO1 (stereo not given in full)
inactive	41.3	> 95 µM (inactive)	> 95	> 95	CC(=NN(Cc1ccccc1)c1ccccc1)c1ccccc1
> 100 µM (inactive)	> 100	> 95 µM (inactive)	> 95	> 95	COc1ccc(Cl)cc1S(=O)(=O)N1CCN(CC(=O)C(C)(C)C)CC1
> 100 µM (inactive)	> 100	> 95 µM (inactive)	> 95	> 95	Cc1ccc(NNS(=O)(=O)c2ccc(C)cc2)cc1
> 100 µM (inactive)	> 100	> 95 µM (inactive)	> 95	> 95	OCC1OC(n2cnc3c(/C=C(\O)c4ccccc4)ncnc32)C(O)C1O (stereo not given)
> 100 µM (inactive)	> 100	> 95 µM (inactive)	> 95	> 95	CCOC(=O)Cc1ccc(NS(=O)(=O)c2ccc(SC)cc2)cc1
inactive	39.9	inactive	> 95	34.4	O=C(O)CSc1nnc(-c2ccc(Cl)cc2Cl)n1-c1ccc(Cl)cc1
inactive	35.5	> 95 µM (inactive)	> 95	> 95	CCOC(=O)C1=C(C)NC2=C(C(=O)CCC2)C1c1cn(Cc2ccc(Cl)cc2Cl)nc1-c1ccccc1 (stereo not given)
> 100 µM (inactive)	> 100	> 95 µM (inactive)	> 95	> 95	CCOC(=O)[C@]12CCCC=C1N(CCC1=CCCCC1)C(=O)[C@H](CC(=O)NCC13CC4CC(CC(C4)C1)C3)C2
> 100 µM (inactive)	> 100	> 95 µM (inactive)	> 95	> 95	CCOC(=O)C1=CCN(S(=O)(=O)c2ccccc2Br)C1c1ccccc1 (stereo not given)
inactive	96.3	> 95 µM (inactive)	> 95	> 95	COc1cc(CN2C[C@@H](CO)O[C@@H](n3cnc4c(N5CCN(c6ccccc6)CC5)ncnc43)C2)cc(OC)c1OC
> 100 µM (inactive)	> 100	> 95 µM (inactive)	> 95	> 95	COc1ccc(/C=N/NC(=O)c2cc(C(C)(C)C)[nH]n2)cc1COc1ccc(F)cc1F
0.965 µM	0.965	> 95 µM (inactive)	> 95	> 95	O=C(c1ccco1)N1CCN(C(=O)c2ccccc2OC(=O)C23CC4CC(CC(C4)C2)C3)CC1
> 100 µM (inactive)	> 100	> 95 µM (inactive)	> 95	> 95	Cc1cc2cc(CNC(=O)c3ccco3)ccc2n1C
inactive	87.9	> 95 µM (inactive)	> 95	> 95	CC(=O)OC[C@@H]1CN(Cc2cccc(C(F)(F)F)c2)C[C@H](n2cnc3c(NCc4ccco4)ncnc32)O1

From PubChem BioAssay AID651650 (Sanford-Burnham Center for Chemical Genomics, 2012)
